Legend:
A375 melanoma cells [1] = experiment: Proliferation of A375 melanoma cells (Example 3); format: cell-based
From the text: We examined the effects of these compounds on proliferation of A375 melanoma cells with BRaf mutations that require ERK activation for survival.
Moreover, 76.3 and TMZ also appeared to delay tumor growth in mice harboring A375 tumors indicative of prolonged survival (FIG. 13B).

ERK2 = ERK2 (Rattus norvegicus (Rat), UniProt P63086); experiment: Binding of DRS compound to ERK2 (FIG. 10)
ERK2, sequence (P63086 whole entry): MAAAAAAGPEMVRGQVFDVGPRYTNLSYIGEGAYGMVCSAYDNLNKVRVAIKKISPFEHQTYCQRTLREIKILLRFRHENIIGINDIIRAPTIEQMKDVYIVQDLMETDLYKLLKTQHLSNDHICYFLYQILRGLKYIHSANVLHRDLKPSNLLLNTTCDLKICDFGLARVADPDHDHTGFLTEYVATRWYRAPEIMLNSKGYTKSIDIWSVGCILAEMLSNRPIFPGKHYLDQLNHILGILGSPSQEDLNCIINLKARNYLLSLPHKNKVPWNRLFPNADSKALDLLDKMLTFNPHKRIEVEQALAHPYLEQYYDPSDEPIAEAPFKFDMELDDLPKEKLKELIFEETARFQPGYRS

A375 melanoma cells [2] = experiment: Caspase 3/7 Glo Assay; format: cell-based; settings: varying doses, 24 hours
Experimental: FIG. 6. SF-3-030 induces growth inhibition and apoptosis in A375 melanoma cells. A375 were seeded in a 96-well plate and incubated for 18-20 hours. Cells were treated with varying concentrations of SF-3-030 and allowed to incubate for an additional 24 hours. Cell viability was measured using the fluorescent Cell Titer Blue Assay and caspase 3/7 activity was measured using the luminescent Caspase 3/7 Glo Assay. Data represent the average of two experiments performed in duplicate.
(§1) Cells were seeded at 25,000 cells/well in 96-well plate and cultured overnight. Cells were treated for 24 hours with various concentrations of compounds and cell viability or caspase 3/7 activity were measured according to manufacturer's instructions using the fluorescent Cell Titer Blue Assay (Promega) or luminescent Caspase 3/7 Glo Assay (Promega).
(§2) To test whether the inhibition of cell proliferation was due to an apoptotic response, A375 and HeLa cells were treated with varying doses of SF-3-030 and cell viability along with caspase 3/7 activity was measured.

[3] = tested on: c-Fos, Fra1, and FosB expression; experiment: Immunoblot of EGF-induced c-Fos, Fra1 and FosB expression in HeLa cells; format: cell-based; settings: EGF 25 ng/mL
Experimental: FIG. 3. EGF-mediated induction of AP-1 proteins is inhibited by SF-3-026 and SF-3-030. (a) HeLa cells were treated for 10, 30, or 60 min. with EGF (25 ng/mL) in the presence of 50 μM SF-3-026 or 10 μM U0126. Protein lysates were immunoblotted for c-Fos, Fra1, FosB and FosB2. Phosphorylated ERK1/2 is not affected by SF-3-026 and α-tubulin expression is shown for a protein loading control. (b) Protein lysates from HeLa cells treated for 30 min. with EGF in the absence or presence of 10, 25, 50, or 100 μM of SF-3-026 or SF-3-030 were immunoblotted for c-Fos, Fra1, FosB, FosB2, as well as phosphorylated ERK1/2 and MEK1/2. Total ERK2 and α-tubulin expression are shown for protein loading controls. Data are representative of three independent experiments.
Analysis of protein expression levels, activity, and cell proliferation were done as previously described. […] Proteins were separated by SDS-PAGE, analyzed by immunoblotting, and detected using enhanced chemiluminescence (ECL, GE Healthcare, United Kingdom).
The reported half-life for c-Fos is ˜10 minutes and growth factor-mediated stabilization of c-Fos protein expression can be observed within 30-60 minutes, whereas stabilization of Fra1 protein is delayed due to AP-1 regulation of the Fra1 promoter. Thus, growth factor-mediated induction of c-Fos, Fra1, and FosB expression was evaluated following treatment with SF-3-026. […]

[4] = tested on: MEK1-induced AP-1 promoter activity; experiment: AP-1 promoter luciferase assay, HeLa cells expressing active MEK1 mutant; format: cell-based; settings: Homo sapiens, 4 hours, read-out: IC50 inhibition of MEK1-induced AP-1 promoter activity
Experimental: FIG. 4. Compound SF-3-026 and analogs inhibit SRE and AP-1 transcription factor function. (a) HeLa cells were transfected with constructs containing SRE or AP-1 promoters driving luciferase expression and then stimulated with EGF in the presence or absence of SF-3-026 for 4 hours followed by measurements of luciferase activity. Cells treated with U0126 were used as a positive inhibitor control. (b and c) HeLa cells were prepared and treated as in (a) with the indicated concentrations of SF-3-026 or analogs for 4 hours followed by the measurement of luciferase activity regulated by the SRE (b) or AP-1 (c) promoters. Data in (b and c) were normalized to EGF-only treatment and represent the mean and standard deviation from three independent experiments. (d) Compound SF-3-026 and analogs inhibit MEK1-induced AP-1 transcription factor function. HeLa cells were transfected with the AP-1 promoter construct and a constitutively active MEK1 mutant in the presence (10 μM) or absence of the MEK1/2 inhibitor (U0126) or an ATP-competitive ERK inhibitor (ERKi) for 4 hours followed by measurements of luciferase activity. (e) Cells expressing the AP-1 promoter and an active MEK-1 construct were treated with the indicated concentrations of SF-3-026 or analogs for 4 hours followed by the measurement of luciferase activity. Data in (e) were normalized to active MEK1-only treatment and represent the mean and standard deviation from three independent experiments.
HeLa cells were seeded in 24-well plates (40,000 cells/well) and incubated 18 hours to achieve ˜60-70% confluent. Cells were transfected with activator protein-1 (pAP1(PMA)-TA-Luc; Clontech) or the serum response element (pGL4.33-SRE; Promega) luciferase reporter plasmids (250 ng/well) using Lipofectamine™ (Invitrogen). After 16 hours, cells were pre-treated with varying amounts of compounds as indicated for 20 minutes, followed by stimulation with EGF (25 ng/mL) for 4.5 hr. In some experiments, cells transfected with the pAP1(PMA)-TA-Luc promoter and a constitutively active MEK1 mutant cDNA were treated with varying amounts of compounds during the last 4 hours of incubation. The luciferase activity in the cell extracts was determined with a Dual Luciferase Assay System (Promega) according to the manufacturer's instructions. Luciferase activities were monitored with a Lumat LB 9507 luminometer (Berthold Technology) and data were normalized to the amount of protein in each sample. […]

AP-1 promoter = AP-1 promoter luciferase assay, EGF-stimulated HeLa cells (Example 1); format: cell-based; settings: Homo sapiens, EGF stimulation, 4 hours, read-out: IC50 inhibition of the AP-1 promoter
Experimental: FIG. 4. Compound SF-3-026 and analogs inhibit SRE and AP-1 transcription factor function. (a) HeLa cells were transfected with constructs containing SRE or AP-1 promoters driving luciferase expression and then stimulated with EGF in the presence or absence of SF-3-026 for 4 hours followed by measurements of luciferase activity. Cells treated with U0126 were used as a positive inhibitor control. (b and c) HeLa cells were prepared and treated as in (a) with the indicated concentrations of SF-3-026 or analogs for 4 hours followed by the measurement of luciferase activity regulated by the SRE (b) or AP-1 (c) promoters. Data in (b and c) were normalized to EGF-only treatment and represent the mean and standard deviation from three independent experiments. (d) Compound SF-3-026 and analogs inhibit MEK1-induced AP-1 transcription factor function. […]
HeLa cells were seeded in 24-well plates (40,000 cells/well) and incubated 18 hours to achieve ˜60-70% confluent. […] The luciferase activity in the cell extracts was determined with a Dual Luciferase Assay System (Promega) according to the manufacturer's instructions. Luciferase activities were monitored with a Lumat LB 9507 luminometer (Berthold Technology) and data were normalized to the amount of protein in each sample. […]

HeLa cells = experiment: Caspase 3/7 Glo Assay; format: cell-based; settings: varying doses
Experimental: as §1, §2

RPMI7951 melanoma cells = experiment: Cell proliferation, fluorescent Cell Titer Blue Assay (Example 1); format: cell-based; settings: Homo sapiens, RPMI-7951; 48 hours
Experimental: (§3) FIG. 5. Dose dependent inhibition of cancer cell proliferation in vitro by SF-3-026 and analogs. A375 (closes circles), RPM17951 (closed squares), HeLa (open circles), or Jurkat (open squares) cells were treated for 48 hours with indicated concentration of (a) SF-3-026, (b) SF-2-027, (c) SF-2-029, or (d) SF-2-030 and cell proliferation was assessed by the fluorescent Cell Titer Blue Assay. The data were reproduced in 3 separate experiments.
as §1
(§4) It was next determined whether inhibition of AP-1 proteins by SF-3-026 and analogs affected the proliferation of cancer cells driven by mutations that constitutively activate the ERK1/2 pathway. For these experiments, A375 and RPMI7951 melanoma cells, which have a valine to glutamate mutation on residue 600 in BRaf that causes constitutive ERK1/2 activation, were chosen. Moreover, RPMI7951 cells are resistant to clinically used BRaf inhibitors due to overexpression of MAP3K8 (the gene encoding COT/Tp12) that re-activates ERK1/2 signaling. Both melanoma cells lines were treated with varying doses of SF-3-026 or analogs and cell viability was compared to HeLa cervical carcinoma and Jurkat T-cell leukemia cells, which are p53 defective but contain no known activating mutations in the ERK1/2 pathway.

A375 melanoma cells [5] = experiment: as above; format: cell-based; settings: Homo sapiens, A-375; 48 hours
Experimental: as §3, §1, §4

[6] = tested on: Jurkat T-cell leukemia cells; experiment: as above; format: cell-based; settings: Homo sapiens, 48 hours
Experimental: as §3, §1, §4

[7] = tested on: HeLa cervical carcinoma cells; experiment: as above; format: cell-based; settings: Homo sapiens, 48 hours
Experimental: as §3, §1, §4

Row | SMILES | effect on A375 cell proliferation (A375 melanoma cells [1]) | affinity (site 1 on ERK2) (ERK2) | caspase 3/7 activity in A375 cells (A375 melanoma cells [2]) | inhibition of EGF-induced c-Fos, Fra1, and FosB expression [3] | IC50 [4] [µM] | IC50 (AP-1 promoter) [µM] | caspase 3/7 activity in HeLa cells (HeLa cells) | GI50 (RPMI7951 melanoma cells) [µM] | GI50 (A375 melanoma cells [5]) [µM] | GI50 [6] [µM] | GI50 [7] [µM]
1 | CCOc1ccc(/C=C2\SC(=O)N(CCNc3nc(Cl)nc(Cl)n3)C2=O)cc1 [SF-2-054] | selective inhibition of A375 cells | high nM affinity |  |  |  |  |  |  |  |  | 
2 | O=S1(=O)C=CC(OS(=O)(=O)c2ccc3c(c2)CC=CC3)C1 (centres unmarked) [SF-3-030] |  |  | dose dependent increase | higher potency | 5 to 10 | < 10 | did not show increased caspase 3/7 activity | 4.6 | 7.1 | > 50 | 29

From US9115122B2, “Non-ATP dependent inhibitors of extracellular signal-regulated kinase (ERK)” (UNIVERSITY OF MARYLAND, BALTIMORE, priority 2012, dated 2015)
